# Like-named read-outs stand apart in the source and are kept apart here.
# Assays:
# TSPO [1] = target: T1, TSPO (Rattus norvegicus, UniProt P16257); experiment: Radioligand displacement of [^3H]PK 11195 by PBR06 in C6 glioma cell lysate; type: binding; conditions: C6 glioma cell line homogenates/lysate; non-linear regression; triplicate
# TSPO [2] = target: T1, TSPO; conditions: cited from earlier work
# TSPO [3] = target: T1, TSPO; type: in vivo; conditions: for K1/k2: 3-compartment, 4-rate constant model; for VT (total distribution volume): from graphical analysis, N = 4
# TSPO [4] = target: T1, TSPO; conditions: in vivo
# [5] = HPLC radiometabolite analysis of arterial plasma after [^18F]PBR06 injection; type: in vivo, rat
# T1 sequence (P16257 whole entry): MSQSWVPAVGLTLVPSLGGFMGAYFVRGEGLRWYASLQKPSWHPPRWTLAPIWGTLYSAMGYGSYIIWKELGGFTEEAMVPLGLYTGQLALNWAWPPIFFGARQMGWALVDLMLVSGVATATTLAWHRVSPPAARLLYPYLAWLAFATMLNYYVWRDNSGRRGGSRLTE
structure (smiles),measurement,setting,value
"COc1ccc(OC)c(CN(C(=O)CF)c2ccccc2Oc2ccccc2)c1 [PBR06, N-fluoroacetyl-N-(2,5-dimethoxybenzyl)-2-phenoxyaniline]","IC50, displacement of [^3H]PK 11195",TSPO [1],in the nanomolar range
CCC(C)N(C)C(=O)c1cc2ccccc2c(-c2ccccc2Cl)n1 (centres unmarked) [PK 11195],In vitro affinity for TSPO,TSPO [2],low nanomolar range
CN1C(=O)CN=C(c2ccc(Cl)cc2)c2cc(Cl)ccc21 [Ro5-4864],In vitro affinity for TSPO,TSPO [2],low nanomolar range
"COc1ccc(OC)c(CN(C(=O)C[18F])c2ccccc2Oc2ccccc2)c1 [[^18F]PBR06, ^18F-N-fluoroacetyl-N-(2,5-dimethoxybenzyl)-2-phenoxyaniline]",K1/k2,"TSPO [3]; Brain, mean ± S.E., N = 3",6.164 ± 2.049 mL/g
same,VT (total distribution volume),"TSPO [3]; Brain, mean ± S.E.",13.07 ± 3.901 mL/g
same,k3,"TSPO [3]; Brain, mean ± S.E., N = 3",0.0714 ± 0.0261 min⁻¹
same,k4,"TSPO [3]; Brain, mean ± S.E., N = 3",0.00945 ± 0.005532 min⁻¹
same,K1/k2,"TSPO [3]; Tumor, mean ± S.E., N = 3",5.947 ± 1.982 mL/g
same,VT (total distribution volume),"TSPO [3]; Tumor, mean ± S.E.",63.90 ± 3.400 mL/g
same,k3,"TSPO [3]; Tumor, mean ± S.E., N = 3",0.3870 ± 0.1592 min⁻¹
same,Plasma clearance,TSPO [3]; after initial spike following tracer injection,rapidly cleared from plasma
same,Total radioactivity in tumor tissue relative to normal brain,"TSPO [3]; last 20 minutes of the 90 min PET scan, C6 glioma-bearing rats",three- to four-fold higher
same,Displaceable binding of [^18F]PBR06 in tumor,TSPO [4],approximately 75%
same,"Tumor activity after PBR06 injection, as % of peak tumor uptake",TSPO [4],approximately 25%
same,Fraction of plasma radioactivity,"[5]; at 45 min after [^18F]PBR06, 15 min after cold PBR06 infusion",57%
same,Fraction of plasma radioactivity,[5]; printed 'at 2.8 min' (2 min sample after [^18F]PBR06 injection),75%
same,Fraction of plasma radioactivity,[5]; printed 'at 30 min' (25 min sample after [^18F]PBR06 injection),38%

# Source: PMC3027353 (Journal of nuclear medicine : official publication, Society …, 2010)
